Measurements published in patent US20070149481A1, “N,n-bridged, nitrogen-substituted carbacyclic indolocarbazoles as protein kinase inhibitors” (priority 2002, published 2007).

Tests used:
Format in all cases: biochemical
Settings in all cases: 10 μM compound
[1] = molecular target: T1, PKA (catalytic subunit, bovine heart) (Bos taurus, UniProt P00517); assay: Protein Kinase A inhibition assay (PKA)
T1 construct: PKA (catalytic subunit, bovine heart, Calbiochem 539486); purchased Calbiochem 539486; host or cells: bovine heart (tissue-derived)
Experimental: (§1) The ERK2 kinase activity assay utilizes a radioactivity-based format in a 96-well PCR plate with radioactive readout. The ERK2 activity was assayed in a 25 μL assay mixture containing 25 mM HEPES (pH 7.0), 250 μM ATP, 1 mM MgCl2, 1 mM DTT, 2% DMSO, 150 ng/mL Myelin Basic Protein (MBP, Sigma M-1891), and 13.6 ng/mL His tagged ERK2 (specific activity=38.1 nmol/min*mg). Compounds were screened for inhibition of the ERK2 kinase activity at a concentration of 10 μM. The kinase reaction was allowed to proceed at 37° C. for 30 minutes, then reaction was stopped by the addition of 5 μl of 0.5M EDTA (pH 8). 15 μL of each solution were then spotted onto the corresponding square of a filtermat (8×12 glassfibre mat 90×120 mm, PE-Wallac 1450-421). The filtermat was allowed to dry and washed once with 10% TCA, 2% PPA, 500 mM NaCl each for 30 minutes at rt. Two further washings in 10% TCA and 2% PPA for 30 minutes were performed, then a final 30 minute wash in 99% EtOH at rt was done and the filtermat was air dried. The dry filtermat was then placed in a sample bag with a Meltilex sheet (Melt-on scintillator sheets 73×109 mm, PE-Wallac 1450-441 for filtermat A) over the filtermat. The bag was trimmed to fit into the microplate heatsealer (PE-Wallac 1495-021). The heatsealer is used to melt the Meltilex on the filtermat. The bag containing the filtermat and the melted Meltilex was then placed into a filter cassette and counted using the Microbeta Jet Scintillation and Luminescence Counter PE-Wallac 1450.
The PKA kinase activity assay utilizes a radioactivity-based format in a 96-well PCR plate with radioactive readout. The PKA activity was assayed in a 25 μL assay mixture containing 25 mM HEPES (pH 7.0), 250 μM ATP, 10 mM MgCl2, 1 mM DTT, 1 mM EDTA (pH 8). 2% DMSO. 250 ng/mL Histone H2B (Roche 223 514), and 2 ng/mL PKA (catalytic subunit, bovine heart, Calbiochem 539486, specific activity=1170 pmol/min*μg). Compounds were screened for inhibition of the PKA kinase activity at a concentration of 10 μM. The kinase reaction was allowed to proceed at 37° C. for 30 minutes, then the reaction was stopped by addition of 5 μL of 0.5M EDTA (pH 8). The remainder of the protocol is identical to the one reported for ERK2.

His tagged ERK2 = His tagged ERK2 (Homo sapiens, UniProt P28482); assay: Extracellular signal Regulated Kinase 2 inhibition assay (ERK2), radioactive filtermat format
Experimental: as §1

PKC (rat brain) = assay: Protein Kinase C inhibition assay (PKC)
Experimental: as §1
The PKC kinase activity assay utilizes a radioactivity-based format in a 96-well PCR plate with radioactive readout. The PKC activity was assayed in a 25 μL assay mixture containing 25 mM HEPES (pH 7.0), 250 μM ATP, 10 mM MgCl2, 1 mM DTT, 1 mM EDTA (pH 8), 2 mM CaCl2, 2% DMSO, 250 ng/mL Histone H1 (Roche 1 004 875), and 165 ng/mL PKC (rat brain, Calbiochem 539494, specific activity=1600 nmol/min*mg). Compounds were screened for inhibition of the PKC kinase activity at a concentration of 10 μM. The kinase reaction was allowed to proceed at 37° C. for 30 minutes, then the reaction was stopped by addition of 5 μL of 0.5M EDTA (pH 8). The remainder of the protocol is identical to the one reported for ERK2.

GSK3β = molecular target: T2, GSK3β (Homo sapiens, UniProt P49841); assay: Glycogen Synthase Kinase 3β inhibition assay (GSK3β)
T2 construct: purchased Upstate Discovery
Experimental: The GSK3β kinase activity assay utilizes a radioactivity-based format in a 96-well PCR plate with radioactive readout. The GSK3 β activity was assayed in a 25 μL assay mixture containing 8 mM HEPES (pH 7.0), 250 μM ATP, 0.2 mM EDTA (pH 8), 2% DMSO, 250 ng/mL Myelin Basic Protein (MBP, Sigma M-1891), and 12 ng/mL GSK3β (Upstate Discovery, specific activity=607 nmol/min*GS2 peptide, concentration of 6.05 mg/mL). Compounds were screened for inhibition of the GSK3β kinase activity at a concentration of 10 μM. The kinase reaction was allowed to proceed at 37° C. for 30 minutes, then the reaction was stopped by addition of 5 μL of 0.5M EDTA (pH 8).

T2 sequence (P49841 whole entry, species assumed): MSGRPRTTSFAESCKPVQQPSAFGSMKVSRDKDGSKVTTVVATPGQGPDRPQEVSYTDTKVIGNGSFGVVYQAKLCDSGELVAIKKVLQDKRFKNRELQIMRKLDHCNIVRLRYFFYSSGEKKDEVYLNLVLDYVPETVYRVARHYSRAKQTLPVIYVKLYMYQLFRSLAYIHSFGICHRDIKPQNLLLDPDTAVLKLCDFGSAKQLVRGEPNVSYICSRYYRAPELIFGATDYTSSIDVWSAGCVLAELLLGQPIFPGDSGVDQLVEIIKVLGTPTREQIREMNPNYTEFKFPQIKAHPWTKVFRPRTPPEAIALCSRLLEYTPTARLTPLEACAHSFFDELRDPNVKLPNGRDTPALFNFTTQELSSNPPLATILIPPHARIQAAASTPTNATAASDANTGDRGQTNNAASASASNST
His tagged ERK2, sequence (P28482 whole entry): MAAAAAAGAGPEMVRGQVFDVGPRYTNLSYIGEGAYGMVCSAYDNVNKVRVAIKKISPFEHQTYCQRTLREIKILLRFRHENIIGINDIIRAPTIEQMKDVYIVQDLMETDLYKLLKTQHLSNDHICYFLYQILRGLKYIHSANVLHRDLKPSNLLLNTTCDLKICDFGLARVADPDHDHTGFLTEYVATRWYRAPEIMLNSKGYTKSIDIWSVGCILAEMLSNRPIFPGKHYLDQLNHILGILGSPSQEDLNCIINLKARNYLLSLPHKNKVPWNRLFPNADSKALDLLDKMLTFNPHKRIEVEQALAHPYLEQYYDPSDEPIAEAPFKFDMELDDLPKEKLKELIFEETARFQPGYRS

| Structure (SMILES) | inhibition at 10 µM [1] [%] | inhibition at 10 µM (His tagged ERK2) [%] | % Inhibition PKC (PKC (rat brain)) [%] | inhibition at 10 µM (GSK3β) [%] | % Inhibition PKA [1] | % Inhibition ERK2 (His tagged ERK2) [%] | % Inhibition GSK3β (GSK3β) |
| --- | --- | --- | --- | --- | --- | --- | --- |
| COc1ccc(CN2C(=O)c3c(c4c5ccccc5n5c4c4c3c3ccccc3n4C3CC5[C@@H](N)C3)C2=O)cc1 (mixture of isomers) [Compound 1] | 17.6 | 30.9 | 49.73 | < 10 |  |  |  |
| CN[C@H]1CC2CC1n1c3ccccc3c3c4c(c5c6ccccc6n2c5c31)C(=O)NC4=O (mixture of isomers) [Compound 2] | 68.4 | 65.3 | 90.78 | 78.2 |  |  |  |
| O=C1NC(=O)c2c1c1c3ccccc3n3c1c1c2c2ccccc2n1C1CC3C[C@@H]1N1CCOCC1 (mixture of isomers) [Compound 3] | 26.1 | 39.9 | 75.80 | 19.3 |  |  |  |
| N#C[C@]1(N)CC2CC1n1c3ccccc3c3c4c(c5c6ccccc6n2c5c31)C(=O)NC4=O (mixture of isomers) [Compound 4] | 89.6 | 94.1 | 78.10 | 98.5 |  |  |  |
| CNC(=O)[C@]1(N)CC2CC1n1c3ccccc3c3c4c(c5c6ccccc6n2c5c31)C(=O)NC4=O (mixture of isomers) [Compound 10] | 95.3 | 93.5 | 90.75 | 99.2 |  |  |  |
| N[C@@]1(C(=O)NCCO)CC2CC1n1c3ccccc3c3c4c(c5c6ccccc6n2c5c31)C(=O)NC4=O (mixture of isomers) [Compound 11] | 90.5 | 93.6 | 95.94 | 99.2 |  |  |  |
| NC(=O)[C@]1(N)C[C@@H]2CC1n1c3ccc(O)cc3c3c4c(c5c6cc(O)ccc6n2c5c31)C(=O)NC4=O (mixture of isomers) [Compound 12] | 99.9 | 98.1 | 96.63 | 100 |  |  |  |
| COc1ccc(CN2C(=O)c3c(c4c5ccccc5n5c4c4c3c3ccccc3n4C3CC5[C@]4(C3)NC(=O)NC4=O)C2=O)cc1 (mixture of isomers) [Compound 13] | 13.2 | 24.7 | 13.67 | < 10 |  |  |  |
| COc1ccc(CN2C(=O)c3c(c4c5ccccc5n5c4c4c3c3ccccc3n4C3CC5[C@]4(C3)NC(=O)N(C)C4=O)C2=O)cc1 (mixture of isomers) [Compound 14] | 16.6 | 46.6 | 34.01 | < 10 |  |  |  |
| [N-]=[N+]=NC1C2CC([C@H]1O)n1c3ccccc3c3c4c(c5c6ccccc6n2c5c31)C(=O)NC4=O (mixture of isomers) [Compound 15] | 79.8 | 94.6 | 88.68 | 96.9 |  |  |  |
| N[C@@H]1C2CC([C@H]1O)n1c3ccccc3c3c4c(c5c6ccccc6n2c5c31)C(=O)NC4=O (mixture of isomers) [Compound 16] | 84.8 | 98.2 | 93.34 | 98.5 |  |  |  |
| COC(=O)c1cn([C@@H]2C3CC([C@H]2O)n2c4ccccc4c4c5c(c6c7ccccc7n3c6c42)C(=O)NC5=O)nn1 (mixture of isomers) [Compound 17] | < 10 | < 10 | 96.75 | 12.1 |  |  |  |
| O=C(O)c1cn([C@@H]2C3CC([C@H]2O)n2c4ccccc4c4c5c(c6c7ccccc7n3c6c42)C(=O)NC5=O)nn1 (mixture of isomers) [Compound 18] | 11.5 | < 10 | 21.55 | 75.9 |  |  |  |
| CCOC(=O)[C@]1(N)CC2CC1n1c3ccccc3c3c4c(c5c6ccccc6n2c5c31)C(=O)NC4=O (stereo partly shown) [Compound 6] | 59.4 | 61.3 | 83.97 | 94.2 |  |  |  |
| N[C@@]1(C(=O)O)CC2CC1n1c3ccccc3c3c4c(c5c6ccccc6n2c5c31)C(=O)NC4=O (stereo partly shown) [Compound 7] | 62.5 | 94.7 | 85.71 | 99 |  |  |  |
| COC(=O)[C@]1(N)CC2CC1n1c3ccccc3c3c4c(c5c6ccccc6n2c5c31)C(=O)NC4=O (stereo partly shown) [Compound 8] | 70.8 | 50.2 | 59.42 | 96.9 |  |  |  |
| O=C1NC(=O)c2c1c1c3ccccc3n3c1c1c2c2ccccc2n1C1CC3CC1NCc1ccccc1 (stereo not shown) [Compound 23] |  |  | 70.41 |  | 27.53% | 53.66 | 72.56% |
| COc1ccc(CN2C(=O)c3c(c4c5ccccc5n5c4c4c3c3ccccc3n4C3CC(N4CCCCC4)C5C3)C2=O)cc1 (stereo not shown) [Compound 24] |  |  | 28.18 |  | 10.67% | 28.09 | NA (NA = <10% inhibition) |
| COc1ccc(CN2C(=O)c3c(c4c5ccccc5n5c4c4c3c3ccccc3n4C3CC(NCCO)C5C3)C2=O)cc1 (stereo not shown) [Compound 25] |  |  | 15.94 |  | NA (NA = <10% inhibition) | 33.51 | NA (NA = <10% inhibition) |
| COc1ccc(CN2C(=O)c3c(c4c5ccccc5n5c4c4c3c3ccccc3n4C3CC5[C@@H](N4CCOCC4)C3)C2=O)cc1 (stereo partly shown) [Compound 26] | < 10 | 67.6 | 10.18 | < 10 |  |  |  |
| CNC1(C#N)CC2CC1n1c3ccccc3c3c4c(c5c6ccccc6n2c5c31)C(=O)N(Cc1ccc(OC)cc1)C4=O (stereo not shown) [Compound 27] |  |  | 32.18 |  | 30.19% | 63.52 | 18.28% |
| COc1ccc(CN2C(=O)c3c(c4c5ccccc5n5c4c4c3c3ccccc3n4C3CC5[C@](N)(C#N)C3)C2=O)cc1 (stereo partly shown) [Compound 28] | < 10 | 48.7 | 28.19 | 25.6 |  |  |  |
| O=C1NC(=O)c2c1c1c3ccccc3n3c1c1c2c2ccccc2n1C1CC3CC1N1CCCCC1 (stereo not shown) [Compound 29] |  |  | 46.63 |  | 18.38% | 56.44 | 54.14% |
| CCCCNC1CC2CC1n1c3ccccc3c3c4c(c5c6ccccc6n2c5c31)C(=O)N(Cc1ccc(OC)cc1)C4=O (stereo not shown) [Compound 30] |  |  | 29.04 |  | NA (NA = <10% inhibition) | 44.61 | NA (NA = <10% inhibition) |
| COc1ccc(CN2C(=O)c3c(c4c5ccccc5n5c4c4c3c3ccccc3n4C3CC(N(C)C)C5C3)C2=O)cc1 (stereo not shown) [Compound 31] |  |  | 21.91 |  | NA (NA = <10% inhibition) | 42.42 | NA (NA = <10% inhibition) |
